One series relates to cMYC-EGFP-DCD19. Nature of the series: Flow cytometry of EGFP signal, cMYC-EGFP-DCD19 in HMEC. Format: cell-based, human. Conditions: 10uM, 4h. From the text: To systematically delineate the optimal DCD/degrader combination for targeted protein degradation, we undertook a matrix approach evaluating all 23 DCD tags against 6 small molecule degraders. […] To control for any potential off-target effects of the IMiD/CeLMOD agents that could indirectly affect the target of interest, we designed controls in which the specific DCD and the EGFP sequences were interspaced by a P2A ribosomal “skipping” sequence,[32] leading to separate translation of the DCD and the target protein (Figure 1A). These constructs were then inserted into a doxycycline-inducible lentiviral vector system and stably expressed in hTERT immortalized human mammary epithelial cells (HMEC), a suitable model to assess the functional consequences of cMYC degradation. cMYC was tagged at the C-terminus end for the initial screening experiments.
Figure 1 Design and experimental evaluation of the DCD tags (A) Representation of the experimental pipeline used to evaluate the different DCD constructs. […] Median EGFP intensity was measured in each condition using flow cytometry (3 independent experiments, normalized to the control and represented as mean ± SD). […] The protein lysates were probed for cMYC levels using western blotting. […] Target loss was evaluated either by measuring EGFP median intensity using flow cytometry or western blotting for cMYC protein (3 independent experiments, normalized to the control and represented as mean ± SD). […] Target loss was evaluated as in (D) (3 independent experiments, normalized to the control and represented as mean ± SD). […] Protein lysates were collected and probed for cMYC and p21 using western blotting. […] Protein lysates were collected and probed for cMYC and p21 using western blotting. […] These were left out as controls with no test substance.
Following degrader treatment cells were collected and DAPI was added to the cell suspension at 1 μg/mL to allow the exclusion of dead cells. EGFP signal was measured using BD LSR II flow cytometer (BD Biosciences). FlowJo 10 Software (FlowJo) was used for data processing.

The test system of the next series is Flag-HA-DCD23-EGFP. The experiment in a line: Degradation of Flag-HA-DCD23-EGFP in murine cells. It counts as cell-based, mouse. As to conditions: for DC50 / DCmax: 24h, flow cytometry. Here is the method: Given the high degradation efficiency of DCD23 in human cells, we sought to test the applicability of this system in murine cells.
The protein lysates were probed for EGFP using western blotting. […] EGFP signal was then measured using flow cytometry. (3 independent experiments, normalized to the control and represented as mean ± SD). […] Data are plotted as Log2 fold change relative to DMSO versus Log10 of p value.
As an additional validation of iTAG (DCD23) induced degradation, we tested the same constructs in murine colorectal carcinoma cells (CT26) where we saw similar loss of EGFP with a panel of IMiD/CeLMODs (Figure S9B).

The subject of series [1] is HMEC, HEK293T, MDA-MB-231, Kelly cells. The experiment in a line: Cell viability assay (CellTiter-Blue). As to conditions: 5 days treatment. It counts as cell-based, human. Here is the method: By endpoint, CellTiter-Blue reagent (Promega) was added to each well, incubated for 3 h at 37°C and absorbance was measured with a plate reader at 570nm. Average background absorbance value was subtracted from all readings when plotting the viability curve.

Series [2] is described as follows: Plasma CC220 level in tumor-bearing mice. Format: in vivo. As to conditions: mouse, 30 mg/kg oral, 24h post administration.
The test system of series [3] is N and C-terminally tagged KRAS^[G12V] and EZH2 (DCD23). The experiment in a line: Flow cytometry of EGFP signal, DCD23-tagged KRAS G12V and EZH2 in HMEC. It counts as cell-based, human. As to conditions: 10uM, 4h. From the text:
We tagged the proteins with DCD23 constructs, fused either to their N-terminus or C-terminus (Figures 2A and 2B). We stably transduced HMEC cells with these constructs and assessed their degradation. Cellular treatment with all degraders led to a decrease in the EGFP signal of the N and C-terminally tagged KRAS^[G12V] and EZH2 (Figures 2A and 2B).
Figure 2 Degradation of cytoplasmic and nuclear targets using iTAG (A) HMEC cells expressing N-terminally tagged DCD23-EGFP-KRAS^[G12V], DCD23-EGFP-EZH2, DCD23-EGFP-cMYC or their corresponding P2A control were induced with doxycycline for 24h then treated with either DMSO or the different indicated drugs at a concentration of 10uM for 4h. Median EGFP intensity was measured in each condition using flow cytometry and normalized values were represent in the Log2 Fold change relative to the DMSO control. […] Median EGFP intensity was measured in each condition using flow cytometry and normalized values were represent in the Log2 Fold Change relative to the DMSO control. […]
Cells stably transduced with the iTAG tagged constructs were treated with 1 μg/mL of doxycycline for 24h to induce constructs expression. […] EGFP signal was measured using BD LSR II flow cytometer (BD Biosciences). […]

Series [4] deals with RBM39, CDK9, MAPK9, HPRT1, SMS, MAVS (tagged). The experiment in a line: Western blotting, iTAG versus dTAG at 24h on six targets in SUM159. It counts as cell-based, human. Conditions: SUM159, 24h. Here is the method: Subsequently, we evaluated the extent of degradation induced by the two tagging systems. For this purpose, we tested targets present in different subcellular localizations at a longer time point (24h): RBM39 (-nuclear 59.3kDa-), CDK9 (Cyclin-dependent kinase 9 -nuclear 42.7kDa-), MAPK9 (Mitogen-activated protein kinase 9 -nuclear 48.1 kDa-), HPRT1 (Hypoxanthine Phosphoribosyltransferase 1-cytoplasmic 24.5kDa-), SMS (Spermine synthase –cytoplasmic 41.2kDa-), and MAVS (Mitochondrial antiviral-signaling protein -mitochondrial 56.5kDa-) (Figure S7).

SMILES strings stand for the structures.

Take `O=C1CC[C@H](N2Cc3c(OCc4ccc(CN5CCOCC5)cc4)cccc3C2=O)C(=O)N1` [CC220, Iberdomide]: the “loss of cMYC-EGFP signal” value in the series with cMYC-EGFP-DCD19 was “robust loss of cMYC-EGFP signal”. Also, in the series on Flag-HA-DCD23-EGFP (2208L and PyMT), the “time of onset of loss of EGFP signal” value was not above 1 h. For the same compound, the “degradation of DCD23 tagged EGFP” value with Flag-HA-DCD23-EGFP (2208L and PyMT, 24 h, western blotting) is on record as “efficiently degraded”. In the series with Flag-HA-DCD23-EGFP (2208L), this compound registered a DC50 of 2.7 nM and a DCmax of 88%. For the same compound, in the series with Flag-HA-DCD23-EGFP (PyMT), the DC50 came to 4.3 nM and the DCmax came out at 81%. For the same compound, the cellular toxicity result in series [1] is given as “did not induce cellular toxicity”. In series [2], the residual plasma level result is “nanomolar range”. Moreover, the “change of EGFP signal” value in series [3] is “most active degrader”. The “degradation compared with dTAG” value in series [4] is on record as “more effective degradation of the targets even at low nanomolar CC220 concentrations”.

The values are drawn from PMC10285648, “iTAG an optimized IMiD-induced degron for targeted protein degradation in human and murine cells” (iScience, 2023).
